According to patent publication US8784633B2, “Automatic positioning and sensing microelectrode arrays” (priority 2007, dated 2014):

System: cortical neurons
Assay: Multi-site recording of extracellular spontaneous electrophysiological activity of cortical neuronal networks on APSMEA
Format: cell-based, rat
Experimental: FIG. 3 is a process flow diagram 300 of a process for controlling movement of target cells into a predetermined location using negative DEP forces. At 302, target cells (e.g., neuronal cells) in suspension are introduced onto a APSMEA device 100. The target cells are prepared according to institutional guidelines for care and use of animals. For example, to obtain neuronal cells, cortical neurons are excised from 18-day rat embryos and dissociated by trituration after digestion with papain (20 U/ml). The neurons are then resuspended in Neurobasal medium with B27 supplement and 500 μM glutamine. The medium initially added to new cultures are also supplemented with 25 μM glutamate and 25 μM β-mercaptoethanol. With four different concentrations, i.e., 1×10^5 cells/ml, 2×10^5 cells/ml, 5×10^5 cells/ml and 1×10^6 cells/ml, neurons are seeded on the APSMEA device 100 after coating with poly-L-lysine (50 μg/ml) and laminin (10 μg/ml).
FIG. 6a-c represent results of multi-site recordings of extracellular spontaneous electrophysiological activities from cortical neuronal networks (14 DIV) for control (no DEP forces applied) and manipulated (with DEP forces applied) cells at the seeding cell concentration of 5×10^5 cells/ml. Multi-site electrophysiological recordings in this and other implementations can be performed with the APSMEA device connected with a commercial multi-channel amplifier and filtering stage (Cyberkinetics, Salt Lake City, Utah). Measurements are carried out in 14 days old cortical cultures at 37° C., allowing the signals from the recording electrodes 122 amplified (×5000), band-pass filtered (250-7500 Hz), and sampled at 30 kHz/channel on 25 channels simultaneously. Using ±3 times of the standard deviation of the noise level as the threshold value for each channel, electrophysiological activities are detected on-line or off-line. NMDA (5 μM) and APV (5 μM) are also applied in the culture medium, and their related electrophysiological activities before and after any drug (e.g., chemical compounds) administration are both recorded for 10 min. […]

[1] = 5 μM in culture medium, cortical neurons 14 DIV, 10 min recording, n=4 separate APSMEAs

N[C@@H](CCCP(=O)(O)O)C(=O)O [APV]
electrical activity level (sum of spikes over all active sites) compared with no drug added control [1]: 7.8±7.5 % of control

CN[C@H](CC(=O)O)C(=O)O [NMDA]
induced activity level relative to controls [1]: increase three times more than that of controls

TTX
effect on recorded extracellular action potentials (electrical activities): inhibited
